≈ marks a conversion by molar mass, not a printed value.
Columns and labels:
Experiment in all cases: microbe, parasite or virus in culture
Details in all cases: Mycobacterium tuberculosis, read-out: MIC95 (95% inhibition)
[1] = test system: M. tuberculosis isolate VA1345
[2] = test system: M. tuberculosis isolate VA1215
[3] = test system: M. tuberculosis isolate UCSD14768J

| SMILES | MIC [1] | MIC [2] | MIC [3] |
| --- | --- | --- | --- |
| O=C(NCCN1CCCCCC1)c1ccc2c(c1)N(Cc1cccc(Cl)c1)C(=O)c1ccccc1[S+]2[O-] (stereo not shown) [Compound 20] | 110 µM (≈ 59 µg/mL) | 110 µM (≈ 59 µg/mL) | 110 µM (≈ 59 µg/mL) |
| CCC1CCCCN1CCCNC(=O)c1ccc2c(c1)N(Cc1cccc(Cl)c1)C(=O)c1ccccc1[S+]2[O-] (stereo not shown) [Compound 12] | – | 110 µM (≈ 62.1 µg/mL) | – |
| CN(CCCNC(=O)c1ccc2c(c1)N(Cc1cccc(Cl)c1)C(=O)c1ccccc1[S+]2[O-])C1CCCCC1 (stereo not shown) [Compound 2, N-[3-(cyclohexylmethylamino)propyl]-10-[(3-chlorophenyl)methyl]-10,11-dihydro-11-oxo-dibenzo-[b,f][1,4]-thiazepine-8-carboxamide-5-oxide] | 110 µM (≈ 62.1 µg/mL) | 110 µM (≈ 62.1 µg/mL) | 110 µM (≈ 62.1 µg/mL) |
| O=C(NCCCN1CCCC1)c1ccc2c(c1)N(Cc1cccc(Cl)c1)C(=O)c1ccccc1S2 [Compound 18] | 110 µM (≈ 55.7 µg/mL) | 110 µM (≈ 55.7 µg/mL) | 110 µM (≈ 55.7 µg/mL) |
| O=C(NCCCN1CCCC1)c1ccc2c(c1)N(Cc1cccc(Cl)c1)C(=O)c1ccccc1[S+]2[O-] (stereo not shown) [Compound 17] | 220 µM (≈ 115 µg/mL) | 220 µM (≈ 115 µg/mL) | 220 µM (≈ 115 µg/mL) |

— paper PMC3123436 (Bioorganic & medicinal chemistry, 2011)
